Where two headings read alike, the source gives them in different places.
Target: T1, SIRT1 (Homo sapiens, UniProt Q96EB6)
T1 sequence (Q96EB6 1-747): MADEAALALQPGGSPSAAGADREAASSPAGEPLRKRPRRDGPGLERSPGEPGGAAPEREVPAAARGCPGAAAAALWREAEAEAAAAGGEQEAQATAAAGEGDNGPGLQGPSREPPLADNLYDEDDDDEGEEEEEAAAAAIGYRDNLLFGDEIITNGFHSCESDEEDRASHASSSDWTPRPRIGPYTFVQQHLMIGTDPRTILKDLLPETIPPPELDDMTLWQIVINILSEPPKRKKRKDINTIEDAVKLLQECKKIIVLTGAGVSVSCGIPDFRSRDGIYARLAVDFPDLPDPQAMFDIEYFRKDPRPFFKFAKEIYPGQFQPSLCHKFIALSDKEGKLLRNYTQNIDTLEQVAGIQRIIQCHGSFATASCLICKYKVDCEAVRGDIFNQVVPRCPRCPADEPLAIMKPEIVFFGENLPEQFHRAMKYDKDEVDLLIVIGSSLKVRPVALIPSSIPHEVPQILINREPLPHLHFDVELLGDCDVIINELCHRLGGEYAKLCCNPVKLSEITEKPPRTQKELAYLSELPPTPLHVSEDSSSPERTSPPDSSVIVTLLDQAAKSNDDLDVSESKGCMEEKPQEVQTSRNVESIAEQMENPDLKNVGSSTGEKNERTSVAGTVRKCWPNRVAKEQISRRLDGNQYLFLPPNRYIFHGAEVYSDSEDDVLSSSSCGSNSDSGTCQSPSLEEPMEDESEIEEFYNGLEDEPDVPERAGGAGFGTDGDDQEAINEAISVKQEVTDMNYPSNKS
Assay: Trp mass spectrometry assay of SIRT1 activation
Assay type: biochemical
Settings: for TRP Activity (EC1.5): EC1.5 = concentration that results in 150% activation of SIRT1
Method in brief: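 N-terminal His-tagged human SIRT1 (10 nM, E. coli BL21(DE3)) with 0.5 μM Ac-RHKK(Ac)W-NH2 peptide and 120 μM βNAD+, 25 min at 25 °C in HEPES pH 7.5, formic acid stop. OAADPR or deacetylated peptide quantified by mass spectrometry; EC1.5 (50% activity increase over control) and Percent Maximum Activation reported.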

[1] = Trp peptide assay, maximum activity relative to control (100%), read-out: TRP MAX RESP (percent maximum fold activation)
[2] = Trp mass spectrometry assay, EC1.5 = concentration of test compound that results in 150% activation of SIRT1
[3] = Trp mass spectrometry assay, concentration of test compound giving 150% activation of SIRT1
[4] = concentration giving 150% activation of SIRT1, Trp peptide substrate
[5] = Trp mass spectrometry assay, percent maximum fold activation of SIRT1, read-out: Tryp % Fold Act

TRP Activity (EC1.5) (Trp peptide assay) | Emax [1] | Tryp AVG EC1.5 (μM) [2] | Compound | further results
B (B (EC1.5 1-25 μM)) | > 150% |  | O=C(Nc1cnccn1)N1c2nc(-c3ccc(OC(F)F)nc3)ccc2N2CC[C@H]1C2 [(9S)-5-[6-(difluoromethoxy)pyridin-3-yl]-N-(pyrazin-2-yl)-1,6,8-triazatricyclo[7.2.1.0 {2,7}]dodeca-2(7),3,5-triene-8-carboxamide] | 
B (B (EC1.5 1-25 μM)) | > 150% |  | C[C@H]1CN(c2ccc3c(n2)N(C(=O)Nc2cnccn2)[C@H]2CCN3C2)CCO1 [(9S)-5-[(2S)-2-methylmorpholin-4-yl]-N-(pyrazin-2-yl)-1,6,8-triazatricyclo[7.2.1.0 {2,7}]dodeca-2,4,6-triene-8-carboxamide] | 
 |  | A (A (EC1.5<1 μM)) | Cn1nccc1-c1cccc(NC(=O)N2c3nc(-c4cccc(C(F)(F)F)c4)ccc3N3CC[C@H]2C3)n1 [Example 623] | 
 |  | B (B (EC1.5 1-25 μM)) | Cc1nc(NC(=O)N2c3nc(-c4cccc(N5CCOCC5)c4)ccc3N3CCC[C@H]2C3)sc1C [Example 537] | 
B (B (EC1.5 1-25 μM)) | > 150% |  | COC(=O)c1cc(-c2ccc3c(n2)N(C(=O)Nc2cnccn2)[C@H]2CCN3C2)ccn1 [methyl 4-[(9S)-8-[(pyrazin-2-yl)carbamoyl]-1,6,8-triazatricyclo[7.2.1.0 {2,7}]dodeca-2(7),3,5-trien-5-yl]pyridine-2-carboxylate] | 
C (C (EC1.5>25 μM)) | < 150% |  | Cc1cc(-c2ccc3c(n2)N(C(=O)Nc2cnc(C(F)(F)F)cn2)[C@H]2CCN3C2)ccn1 [(9S)-5-(2-methylpyridin-4-yl)-N-[5-(trifluoromethyl)pyrazin-2-yl]-1,6,8-triazatricyclo[7.2.1.0 {2,7}]dodeca-2(7),3,5-triene-8-carboxamide] | 
 |  | A (A (EC1.5<1 μM)) | CC(C)(C)OC(=O)NCc1cn(-c2cccc(NC(=O)N3c4nc(-c5cccc(C(F)(F)F)c5)ccc4N4CC[C@H]3C4)c2)nn1 [Example 605] | 
 |  | B (B (EC1.5 1-25 μM)) | Cc1nc(NC(=O)N2c3nc(-c4cccc(Cl)c4)ccc3N3CCC2CC3)sc1C [Example 569] | 
 |  | B (B (EC1.5 1-25 μM)) | COc1cc(NC(=O)N2c3nc(-c4cccnc4)ccc3N3CCC[C@H]2C3)ncn1 [Example 442] | 
B (B (EC1.5 1-25 μM)) | > 150% |  | O=C(Nc1cnccn1)N1c2nc(-c3ccnc(C(F)(F)F)n3)ccc2N2CC[C@H]1C2 [(9S)-N-(pyrazin-2-yl)-5-[2-(trifluoromethyl)pyrimidin-4-yl]-1,6,8-triazatricyclo[7.2.1.0 {2,7}]dodeca-2(7),3,5-triene-8-carboxamide] | 

Continued, compound first:

Compound | TRP Activity (EC1.5) (Trp peptide assay) | Emax [1] | Tryp AVG EC1.5 (μM) [2] | further results
O=C(Nc1ccccn1)N1c2nc(-c3ccnc(C(F)(F)F)c3)ccc2N2CCC[C@H]1C2 [(9S)-N-(pyridin-2-yl)-5-[2-(trifluoromethyl)pyridin-4-yl]-1,6,8-triazatricyclo[7.3.1.0 {2,7}]trideca-2(7),3,5-triene-8-carboxamide] | A (A (EC1.5<1 μM)) | > 150% |  | 
Cc1ccc(-c2ccc3c(n2)N(C(=O)Nc2cncc(OC[C@@H](O)CO)n2)[C@H]2CCN3C2)cn1 [(9S)-N-{6-[(2S)-2,3-dihydroxypropoxy]pyrazin-2-yl}-5-(6-methylpyridin-3-yl)-1,6,8-triazatricyclo[7.2.1.0 {2,7}]dodeca-2(7),3,5-triene-8-carboxamide] | B (B (EC1.5 1-25 μM)) | > 150% |  | 
O=C(Nc1cnccn1)N1c2nc(-c3cccc(Cl)c3)ccc2N2CCC1CC2 [Example 543] |  |  | B (B (EC1.5 1-25 μM)) | 
O=C(Nc1ccc(F)cn1)N1c2nc(-c3cncc(F)c3)ccc2N2CCC[C@H]1C2 [Example 431] |  |  | A (A (EC1.5<1 μM)) | 
Cc1[nH]ncc1-c1ccc2c(n1)N(C(=O)Nc1cccnc1)[C@H]1CCN2C1 [Example 490] |  |  | B (B (EC1.5 1-25 μM)) | 
NC(=O)c1cncc(-c2ccc3c(n2)N(C(=O)Nc2ccccn2)[C@H]2CCN3C2)c1 [Example 371] |  |  |  | Tryp AVG EC1.5 (μM) [3]: B (B (EC1.5 1-25 μM))
CCCn1cc(-c2cccc(NC(=O)N3c4nc(-c5cccc(C(F)(F)F)c5)ccc4N4CC[C@H]3C4)n2)cn1 [Example 656] |  |  |  | Tryp AVG EC1.5 (μM) [4]: A (A (EC1.5<1 μM))
O=C(Nc1nnc(-c2ccccn2)o1)N1c2nc(-c3cccc(C(F)(F)F)c3)ccc2N2CC[C@H]1C2 [Example 720] |  |  |  | Tryp AVG EC1.5 (μM) [4]: A (A (EC1.5<1 μM))
Cc1cncc(NC(=O)N2c3nc(-c4cccc(Cl)c4)ccc3N3C[C@@H](O)[C@H]2C3)c1 [Example 676] |  |  |  | Tryp AVG EC1.5 (μM) [4]: A (A (EC1.5<1 μM))
CS(=O)(=O)c1cccc(-c2ccc3c(n2)N(C(=O)Nc2cncc(-c4cnco4)c2)[C@H]2CCN3C2)c1 [Example 724] |  |  |  | Tryp AVG EC1.5 (μM) [4]: A (A (EC1.5<1 μM))
O=C(Nc1ncc(-c2ccccc2)s1)N1c2nc(-c3cccc(C(F)(F)F)c3)ccc2N2CC[C@H]1C2 [Example 734] |  |  |  | Tryp AVG EC1.5 (μM) [4]: B (B (EC1.5 1-25 μM))
Cc1cc(-c2ccc3c(n2)N(C(=O)Nc2cncnc2)[C@H]2CCN3C2)ccn1 [(9S)-5-(2-methylpyridin-4-yl)-N-(pyrimidin-5-yl)-1,6,8-triazatricyclo[7.2.1.0 {2,7}]dodeca-2(7),3,5-triene-8-carboxamide] | C (C (EC1.5>25 μM)) | > 150% |  | 
Cc1cc(-c2ccc3c(n2)N(C(=O)Nc2ccc4[nH]ncc4c2)[C@H]2CCN3C2)ccn1 [(9S)-N-(1H-indazol-5-yl)-5-(2-methylpyridin-4-yl)-1,6,8-triazatricyclo[7.2.1.0 {2,7}]dodeca-2(7),3,5-triene-8-carboxamide] | A (A (EC1.5<1 μM)) | > 150% |  | 
O=C(NCCCc1ccncc1)N1c2nc(-c3cccc(C(F)(F)F)c3)ccc2N2CC[C@H]1C2 [Example 633] |  |  |  | Tryp AVG EC1.5 (μM) [4]: B (B (EC1.5 1-25 μM))
CC(C)(C)OC(=O)NCCCc1cc(NC(=O)N2c3nc(-c4cccc(C(F)(F)F)c4)ccc3N3CC[C@H]2C3)cc(-c2cnco2)c1 [Example 759] |  |  |  | Tryp AVG EC1.5 (μM) [4]: B (B (EC1.5 1-25 μM))
O=C(O)c1cc(NC(=S)NCc2ccc(NC(=O)N3c4nc(-c5cccc(C(F)(F)F)c5)ccc4N4CC[C@H]3C4)cc2)ccc1-c1c2ccc(=O)cc-2oc2cc(O)ccc12 [Example 530] |  |  | A (A (EC1.5<1 μM)) | Emax [5]: > 150%
N#Cc1cccc(-c2ccc3c(n2)N(C(=O)Nc2ccncn2)[C@H]2CCCN3C2)c1 [Example 352] |  |  |  | Tryp AVG EC1.5 (μM) [3]: A (A (EC1.5<1 μM))
Cc1c(-c2ccc3c(n2)C(C(=O)Nc2ccccn2)[C@H]2CCN3C2)cnn1C (stereo partly drawn) [Example 531] |  |  | B (B (EC1.5 1-25 μM)) | Emax [5]: > 150%
O=C(Nc1cc(-c2cnco2)ccn1)N1c2nc(-c3cccc(C(F)(F)F)c3)ccc2N2C[C@@H](O)[C@H]1C2 [Example 662] |  |  |  | Tryp AVG EC1.5 (μM) [4]: B (B (EC1.5 1-25 μM))
COc1cc(-c2ccc3c(n2)N(C(=O)Nc2cnccn2)[C@H]2CCN3C2)ccn1 [(9S)-5-(2-methoxypyridin-4-yl)-N-(pyrazin-2-yl)-1,6,8-triazatricyclo[7.2.1.0 {2,7}]dodeca-2(7),3,5-triene-8-carboxamide] | B (B (EC1.5 1-25 μM)) | > 150% |  | 
O=C(Nc1ccncn1)N1c2nc(-c3cccnc3)ccc2N2CCC[C@H]1C2 [Example 456] |  |  | B (B (EC1.5 1-25 μM)) | 
CC(C)(C)c1nnc(NC(=O)N2c3nc(-c4cccc(C(F)(F)F)c4)ccc3N3CC[C@H]2C3)s1 [Example 649] |  |  |  | Tryp AVG EC1.5 (μM) [4]: B (B (EC1.5 1-25 μM))
N#Cc1ccccc1-c1ccc2c(n1)N(C(=O)Nc1ccncn1)[C@H]1CCCN2C1 [Example 451] |  |  | B (B (EC1.5 1-25 μM)) | 
CCc1cnc(NC(=O)N2c3nc(-c4ccnc(C)c4)ccc3N3CC[C@H]2C3)cn1 [(9S)-N-(5-ethylpyrazin-2-yl)-5-(2-methylpyridin-4-yl)-1,6,8-triazatricyclo[7.2.1.0 {2,7}]dodeca-2(7),3,5-triene-8-carboxamide] | A (A (EC1.5<1 μM)) | > 150% |  | 
NCc1cnnn1-c1cccc(NC(=O)N2c3nc(-c4cccc(C(F)(F)F)c4)ccc3N3CC[C@H]2C3)c1 [Example 640] |  |  |  | Tryp AVG EC1.5 (μM) [4]: A (A (EC1.5<1 μM))
CC(C)(C)OC(=O)NCCn1cc(-c2cccc(NC(=O)N3c4nc(-c5cccc(C(F)(F)F)c5)ccc4N4CCC[C@H]3C4)c2)nn1 [Example 604] |  |  | A (A (EC1.5<1 μM)) | 
O=C(Nc1cnccn1)N1c2nc(-c3ccnc(C(F)(F)F)c3)ccc2N2CCC[C@H]1C2 [(9S)-N-(pyrazin-2-yl)-5-[2-(trifluoromethyl)pyridin-4-yl]-1,6,8-triazatricyclo[7.3.1.0 {2,7}]trideca-2(7),3,5-triene-8-carboxamide] | A (A (EC1.5<1 μM)) | > 150% |  | 

From patent US9834558B2, “Substituted bridged urea analogs as sirtuin modulators” (GLAXOSMITHKLINE LLC, priority 2013, dated 2017)
